Measurements: US11453657B2 (GlaxoSmithKline Intellectual Property Development Limited, priority 2018, dated 2022)
Structures can show the parent of a compound that is named as a salt. Where two headings read alike, the source gives them in different places.

Tested on: P. falciparum infected erythrocytes
Assay: P. falciparum growth inhibition assay ([3H]hypoxanthine incorporation)
Type: cell-based, Plasmodium falciparum
Protocol: P. falciparum Growth Inhibition Assay.
The sensitivity of P. falciparum infected erythrocytes to the compound was determined in duplicate using the [3H]hypoxanthine incorporation method with an inoculum of 0.5% parasitemia (ring stage) and 2% hematocrit. The parasites were grown in RPMI 1640, 25 mM HEPES and supplemented with 5% Albumax. Plates are incubated at 37° C., 5% CO2, 5% O2, 90% N2. After 24 h of incubation, [3H]hypoxanthine is added and plates are incubated for another 24 h. After that period, plates are harvested on a glass fiber filter using a TOMTEC Cell harvester 96. Filters are dried and melt on scintillator sheets and the bound radioactivity is quantified by use of a Wallac Microbeta Trilux (Model 1450 LS—Perkin Elmer). IC50s are determined using Grafit 7 program (Grafit program; Erithacus Software, Horley, Surrey, United Kingdom).
Each example compound was tested generally in accordance with the above-mentioned assay and the PfIC50 value for each compound is reported in the Table below and according to the following: […]

[1] = Plasmodium falciparum, Erythrocyte, [3H]hypoxanthine incorporation, 0.5% parasitemia, 2% hematocrit, 48 h, read-out: PfIC50 Media
[2] = Plasmodium falciparum, Erythrocyte, read-out: average PfIC50
[3] = [3H]hypoxanthine incorporation, 0.5% parasitemia, 2% hematocrit, 48 h, read-out: PfIC50 Media
[4] = Plasmodium falciparum, Erythrocyte, hydrochloride salt, read-out: average PfIC50 of the hydrochloride salt

Structure (SMILES) | IC50 [1] | IC50 [2] | also measured
CC(C)(COc1ccc(C(=O)N2CC[C@H](c3ccc(F)cc3)C2)cc1)Cn1cnnn1 [Example 2, (R)-(4-(2,2-Dimethyl-3-(1H-tetrazol-1-yl)propoxy)phenyl)(3-(4-fluorophenyl)pyrrolidin-1-yl)methanone] | 0.5 to 1 µM |  | 
O=C(c1ccc(OC[C@H](F)Cn2ncnn2)cc1)N1CC[C@H](c2ccc(F)cc2)C1 [Example 11] | < 0.1 µM | ≤ 0.05 µM | 
O=C(c1ccc(OCC(F)Cn2cnnn2)cc1)N1CC[C@H](c2ccc(F)cc2)C1 (single isomer, unassigned) [Example 3b] |  | ≤ 0.05 µM | IC50 [3]: < 0.1 µM
N[C@@H](COc1ccc(C(=O)N2CC[C@H](c3ccc(F)cc3)C2)cc1)Cn1cccn1 [Example 55, (4-((R)-2-amino-3-(1H-pyrazol-1-yl)propoxy)phenyl)((R)-3-(4-fluorophenyl)pyrrolidin-1-yl)methanone, Hydrochloride] | 0.1 to 0.5 µM |  | 
O=C(c1ccc(OCC(O)Cc2cscn2)cc1)N1CC[C@H](c2ccc(F)cc2)C1 (single isomer, unassigned) [Example 35a] | < 0.1 µM | ≤ 0.05 µM | 
O=C(c1ccc(OC[C@H](O)Cn2cnnc2)cc1)N1CC[C@H](c2ccc(F)cc2)C1 [Example 18, ((R)-3-(4-fluorophenyl)pyrrolidin-1-yl)(4-((R)-2-hydroxy-3-(4H-1,2,4-triazol-4-yl)propoxy)phenyl)methanone] | 1 to 5 µM |  | 
O=C(c1ccc(OC[C@H](O)Cn2ncnn2)cc1)N1CCC(c2ccccc2F)C1 (single isomer, unassigned) [Example 40b] |  |  | IC50 [3]: 0.1 to 0.5 µM
O=C(c1ccc(OCC(O)Cc2cscn2)cc1)N1CC[C@H](c2ccc(F)cc2)C1 (single isomer, unassigned) [Example 35b] |  |  | IC50 [3]: 0.1 to 0.5 µM
N[C@@H](COc1ccc(C(=O)N2CC[C@H](c3ccc(F)cc3)C2)c(F)c1)Cn1ncnn1 [Example 56, (4-((R)-2-amino-3-(2H-tetrazol-2-yl)propoxy)-2-fluorophenyl)((R)-3-(4-fluorophenyl)pyrrolidin-1-yl)methanone, Hydrochloride] | 0.1 to 0.5 µM |  | 
N[C@H](COc1ccc(C(=O)N2CC[C@H](c3ccc(F)cc3)C2)cc1)Cn1ncnn1 [Example 49, (4-((S)-2-amino-3-(2H-tetrazol-2-yl)propoxy)phenyl)((R)-3-(4-fluorophenyl)pyrrolidin-1-yl)methanone, Hydrochloride] | 0.1 to 0.5 µM |  | IC50 [4]: 0.31 µM
O=C(c1ccc(OC[C@H](O)Cn2ncnn2)cc1F)N1CC[C@H](c2ccc(F)cc2)C1 [Example 27, (2-fluoro-4-((R)-2-hydroxy-3-(2H-tetrazol-2-yl)propoxy)phenyl)((R)-3-(4-fluorophenyl)pyrrolidin-1-yl)methanone] | < 0.1 µM | ≤ 0.05 µM | 
N[C@@H](COc1ccc(C(=O)N2CC[C@H](c3ccc(Cl)cc3)C2)cc1)Cn1ncnn1 [Example 48, (4-((R)-2-amino-3-(2H-tetrazol-2-yl)propoxy)phenyl)((R)-3-(4-chlorophenyl)pyrrolidin-1-yl)methanone] | < 0.1 µM | ≤ 0.05 µM | 
COc1ccc(C2CCN(C(=O)c3ccc(OC[C@H](O)Cn4ncnn4)cc3)C2)cc1 (single isomer, unassigned) [Example 44b] |  |  | IC50 [3]: 0.5 to 1 µM
CC(O)(COc1ccc(C(=O)N2CC[C@H](c3ccc(F)cc3)C2)cc1)Cn1cnnn1 (stereo partly drawn) [Example 10b, ((R)-3-(4-Fluorophenyl)pyrrolidin-1-yl)(4-(2-hydroxy-2-methyl-3-(1H-tetrazol-1-yl)propoxy)phenyl)methanone] |  |  | IC50 [3]: 1 to 5 µM
O=C(c1ccc(OC[C@H](O)Cn2ncnn2)cc1)N1CC[C@H](c2ccc(F)cc2)C1 [Example 7, ((R)-3-(4-Fluorophenyl)pyrrolidin-1-yl)(4-((R)-2-hydroxy-3-(2H-tetrazol-2-yl)propoxy)phenyl)methanone] | < 0.1 µM | ≤ 0.05 µM | 
O=C(c1ccc(OC[C@H](O)Cn2ccnc2)cc1)N1CC[C@H](c2ccc(F)cc2)C1 [Example 20, ((R)-3-(4-fluorophenyl)pyrrolidin-1-yl)(4-((R)-2-hydroxy-3-(1H-imidazol-1-yl)propoxy)phenyl)methanone] | < 0.1 µM |  | 

Structure (SMILES) | IC50 [1] | IC50 [2] | also measured
Cl.N[C@H](COc1ccc(C(=O)N2CC[C@@H](c3ccc(F)cc3)C2)cc1)Cn1ncnn1 [Example 51, (4-((S)-2-amino-3-(2H-tetrazol-2-yl)propoxy)phenyl)((S)-3-(4-fluorophenyl)pyrrolidin-1-yl)methanone, Hydrochloride] |  |  | IC50 [4]: > 5 µM
NC(=O)c1nnn(C[C@@H](O)COc2ccc(C(=O)N3CC[C@H](c4ccc(F)cc4)C3)cc2)n1 [Example 38, 2-((R)-3-(4-((R)-3-(4-Fluorophenyl)pyrrolidine-1-carbonyl)phenoxy)-2-hydroxypropyl)-2H-tetrazole-5-carboxamide] | 0.1 to 0.5 µM |  | 
O=C(c1ccc(OC[C@H](O)Cn2ncnn2)cc1F)N1CC[C@H](c2ccc(Cl)cc2)C1 [Example 34, ((R)-3-(4-chlorophenyl)pyrrolidin-1-yl) (2-fluoro-4-((R)-2-hydroxy-3-(2H-tetrazol-2-yl)propoxy)phenyl)methanone] | < 0.1 µM |  | 
O=C(c1ccc(OC[C@H](O)Cn2ncnn2)cc1)N1CCC(c2cccc(F)c2)C1 (single isomer, unassigned) [Example 41b] | 0.1 to 0.5 µM |  | 
O=C(c1ccc(OC[C@H](O)Cn2nccn2)cc1)N1CC[C@H](c2ccc(F)cc2)C1 [Example 16, ((R)-3-(4-fluorophenyl)pyrrolidin-1-yl)(4-((R)-2-hydroxy-3-(2H-1,2,3-triazol-2-yl)propoxy)phenyl)methanone] | < 0.1 µM | ≤ 0.05 µM | 
O=C(c1ccc(OC[C@H](O)Cn2ncnn2)cc1)N1CCC(c2ccccc2F)C1 (single isomer, unassigned) [Example 40a] | < 0.1 µM | ≤ 0.05 µM | 
O=C(c1ccc(OC[C@H](O)Cn2ncnn2)cc1)N1CCC(c2ccc(F)cc2F)C1 (single isomer, unassigned) [Example 42a] | < 0.1 µM | ≤ 0.05 µM | 
N[C@@H](COc1ccc(C(=O)N2CC[C@H](c3ccc(F)cc3)C2)cc1)Cn1ncnn1 [Example 45, (4-((R)-2-Amino-3-(2H-tetrazol-2-yl)propoxy)phenyl)((R)-3-(4-fluorophenyl)pyrrolidin-1-yl)methanone] | < 0.1 µM | 0.018 µM | IC50 (Plasmodium falciparum, Erythrocyte, hydrochloride salt of the example, same assay, read-out: PfIC50 Media (uM), (HCl)): < 0.1 µM; IC50 [4]: 0.03 µM
N#Cc1nnn(C[C@@H](O)COc2ccc(C(=O)N3CC[C@H](c4ccc(F)cc4)C3)cc2)n1 [Example 39, 2-((R)-3-(4-((R)-3-(4-Fluorophenyl)pyrrolidine-1-carbonyl)phenoxy)-2-hydroxypropyl)-2H-tetrazole-5-carbonitrile] | 0.1 to 0.5 µM |  | 
N#Cc1ccc(C2CCN(C(=O)c3ccc(OC[C@H](O)Cn4ncnn4)cc3)C2)cc1 (single isomer, unassigned) [Example 43a] |  |  | IC50 [3]: 0.1 to 0.5 µM
O=C(c1ccc(OC[C@H](O)Cc2nnn[nH]2)cc1)N1CC[C@H](c2ccc(F)cc2)C1 [Example 25, ((R)-3-(4-fluorophenyl)pyrrolidin-1-yl)(4-((R)-2-hydroxy-3-(1H-tetrazol-5-yl)propoxy)phenyl)methanone] | 1 to 5 µM |  | 
O=C(c1ccc(OC[C@H](O)Cn2cnnn2)cc1)N1CC[C@H](c2ccc(Cl)cc2)C1 [Example 28, ((R)-3-(4-chlorophenyl)pyrrolidin-1-yl)(4-((R)-2-hydroxy-3-(1H-tetrazol-1-yl)propoxy)phenyl)methanone] | < 0.1 µM |  | 
O=C(c1ccc(OC[C@H](O)Cn2ncnn2)cc1)N1CCC(c2cccc(F)c2)C1 (single isomer, unassigned) [Example 41a] |  | ≤ 0.05 µM | IC50 [3]: < 0.1 µM
CC(O)(COc1ccc(C(=O)N2CC[C@H](c3ccc(F)cc3)C2)cc1)Cn1ncnn1 (stereo partly drawn) [Example 9b, ((R)-3-(4-Fluorophenyl)pyrrolidin-1-yl)(4-(2-hydroxy-2-methyl-3-(2H-tetrazol-2-yl)propoxy)phenyl)methanone] |  |  | IC50 [3]: 0.1 to 0.5 µM
CC(COc1ccc(C(=O)N2CC[C@H](c3ccc(F)cc3)C2)cc1)Cn1cnnn1 (single isomer, unassigned) [Example 1b] |  |  | IC50 [3]: < 0.1 µM
